Columns and labels:
[1] = system: A53T a-syn expressing HEK293 cells; assay: Cell viability with CHMP2B or VPS4 shRNA knockdown, A53T a-syn cells; type: cell-based, human; parameters: Knockdown effect on cell viability: scale not given here
Description: Fig. 1 Proteomic screens and in vitro validation of hits. A Schematic of the experimental design including proteomic screens, identification and validation of hits, target deconvolution, and evaluation in cell and animal models (created using Servier Medical Art at https://smart.servier.com/). For the cytotoxicity screen, we employed our peptide library to identify peptides that rescue cytotoxicity induced by a-syn overexpression and proteostatic stress (due to MG132 administration). To screen our library for peptides that inhibit a-syn oligomers, we used FACS with a split YFP-a-syn system (cells co-expressing V1S and SV2). B Validation of cell viability effect of peptides in A53T and WT a-syn expressing cells under proteostatic stress as well as controls. MG132 was used at a concentration of 10 μM. Experiments were done in triplicate. Data represent means ± s.d. (unpaired two-tailed t-tests; A53T PDpep1, P = 0.0051; A53T PDpep1.1, P = 0.0002; A53T PDpep1.2, P = 0.0035; A53T PDpep1.3, P < 0.0001; WT a-syn PDpep1.3, P = 0.0008; n = 3). C WT a-syn oligomers as measured by luciferase activity. […] Experiments were done in triplicate. Data represent means ± s.d. (unpaired two-tailed t-tests; PDpep1, P = 0.0008; PDpep1.1, PDpep1.2, PDpep1.3, P < 0.0001; n = 3). D Co-immunoprecipitation experiment with Flag-CHMP2B and GFP-peptides (n = 3). […] E Fluorescence polarization (FP) binding assay of a FITC-labeled PDpep1.3 peptide against CHMP2B. Error bars represent ± s.d. of the fit (n = 5). F Knockdown of CHMP2B or VPS4 in A53T a-syn expressing cells under proteostatic stress. Cell viabilities were measured with cells stably expressing different shRNAs and transfected with Scramble or PDpep1.3 peptide. Experiments were done in triplicate. Data represent means ± s.d. (unpaired two-tailed t-tests; PDpep1.3, P = 0.0005; n = 3). **P < 0.01; ***P < 0.001; ****P < 0.0001. Source data are provided as a Source Data file.
Cells were trypsinized from subconfluent cultures as described earlier, suspended in culture media, and then seeded into triplicate wells of a 96-well plate (100 µl/well) at a density of 1.5 × 10^4 cells per well with standard culture conditions of 5% CO2 at 37 °C. Cells were infected with lentivirus expressing peptide at a MOI of 5 for 72 h or transfected with plasmid for 72 h. Cell Titer-Glo reagent was added to each well (30 µL), according to the manufacturer’s protocol and […].

[2] = system: LC3-HiBiT reporter in HEK293 cells; assay: Autophagy flux assay (LC3-HiBiT reporter), HEK293 cells; type: cell-based, human
Description: Autophagic flux was quantitatively measured with the Autophagy LC3-HiBiT Reporter Assay System which was purchased from Promega (GA1040) and used according to the manufacturer’s instructions. When autophagy is induced, the cytosolic LC3-I fusion protein is recruited to phagophores where it becomes conjugated to phosphatidylethanolamine to form LC3-II. Upon phagophore membrane elongation and closure to form the mature autophagosome, a significant fraction of tethered LC3 protein becomes captured within the lumen together with various cargo. Subsequently, autophagosomes fuse with lysosomes to form autolysosomes, leading to the ultimate degradation of both cargo and the captured LC3 reporter protein. Thus, changes in the total level of the LC3 reporter protein can be used to monitor changes in autophagic flux. HEK293 cells (ATCC, CRL-1573) stably expressing the LC3-HiBiT reporter were trypsinized from subconfluent culture and seeded in a 10 cm plate at a density of 3.0 × 10^6 per plate. Cells were incubated overnight at 37 °C in 5% CO2. Cells were transfected with FLAG-peptide plasmids in combination with pcDNA or A53T a-syn plasmids. After 24 h, cells were trypsinized and seeded in triplicate in a white flat-bottomed 96-well plate at a density of 20,000 cells per well. Cell medium was replaced the next day with fresh medium containing DMSO, Rapamycin, or Bafilomycin A1 and incubated for 24 h at 37 °C with 5% CO2. 80 µL of Working prewarmed Nano-Glo® HiBiT lytic buffer containing HiBiT substrate and LgBit protein (N3030) were added to each well containing 20 µL of cell medium and left to incubate on a rocker for 10 min. Samples were read using a luminometer with a 480 nm filter with measured RLU being directly proportional to HiBiT-conjugated LC3.

Sequence: DEEIERQLKALG [PDpep1.3]
- Knockdown effect on cell viability ([1]; CHMP2B shRNA, replicate 1): 1.187
- Knockdown effect on cell viability ([1]; CHMP2B shRNA, replicate 2): 1.181
- Knockdown effect on cell viability ([1]; CHMP2B shRNA, replicate 3): 1.121
- Knockdown effect on cell viability ([1]; No shRNA, replicate 1): 1.473
- Knockdown effect on cell viability ([1]; No shRNA, replicate 2): 1.4504
- Knockdown effect on cell viability ([1]; No shRNA, replicate 3): 1.525
- Knockdown effect on cell viability ([1]; VPS4A shRNA, replicate 1): 1.3172
- Knockdown effect on cell viability ([1]; VPS4A shRNA, replicate 2): 1.331
- Knockdown effect on cell viability ([1]; VPS4A shRNA, replicate 3): 1.421
- Knockdown effect on cell viability ([1]; VPS4A/B shRNA, replicate 1): 1.464
- Knockdown effect on cell viability ([1]; VPS4A/B shRNA, replicate 2): 1.542
- Knockdown effect on cell viability ([1]; VPS4A/B shRNA, replicate 3): 1.564
- Knockdown effect on cell viability ([1]; VPS4B shRNA, replicate 1): 1.302
- Knockdown effect on cell viability ([1]; VPS4B shRNA, replicate 2): 1.395
- Knockdown effect on cell viability ([1]; VPS4B shRNA, replicate 3): 1.343
- Cytoprotective effect under knockdown ([1]; shRNA CHMP2B or VPS4A and/or VPS4B): prevented by CHMP2B knockdown, but not by knockdown of VPS4A and/or VPS4B
- Effect on autophagic flux [2]: neither A53T a-syn nor PDpep1.3 altered autophagic flux

Reference: publication PMC10115881, “Disrupting the α-synuclein-ESCRT interaction with a peptide inhibitor mitigates neurodegeneration in preclinical models of Parkinson’s disease” (Nature Communications, 2023)
